These results are taken from ChEMBL document CHEMBL1201862, “PubChem BioAssay data set” (2004).

Test systems include MDA-MB-435; UACC-257; MOLT-4; HCC 2998; SNB-19; CAKI-1; XF498; SK-MEL-2; SF-295; SK-MEL-28; M14; SNB-75; DMS-273; HCT-15; SR; MDA-MB-231; NCI-H460; SF-539; UO-31; DLD-1.
Common to all, as to assay: DTP human tumour cell line panel, 48 h

Structures can show the parent of a compound that is named as a salt.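 Values below derive from 48-hour exposures of cells grown in 96-well plates, with endpoints linearly interpolated between the two concentrations bracketing the appropriate inhibition level. The concentration for 50% growth inhibition is given as GI50.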 Activity calls are given as the source filed them. No stated cut-off is given here; in the data, active = GI50 up to about 1.1 µM and inactive = higher.

Regarding `O=C1c2c(O)cccc2-c2nn(CCNCCO)c3ccc(NCCNCCO)c1c23` [LOSOXANTRONE HYDROCHLORIDE], the GI50 with MDA-MB-435 was 0.53 µM (active); in the assay with UACC-257 it was 1.6 µM (inactive); with MOLT-4, < 0.01 µM (active); in the assay with HCC 2998, 0.137 µM (active); in the assay on SNB-19, < 0.0167 µM (active); in the assay with CAKI-1, 0.0552 µM (active). The GI50 is 0.0135 µM (active) with XF498; 0.436 µM (active) in the assay on SK-MEL-2; 0.0236 µM (active) with SF-295; 0.447 µM (active) with SK-MEL-28; 0.244 µM (active) in the assay with M14; 0.047 µM (active) with SNB-75. Moreover, the GI50 is 0.0288 µM (active) with DMS-273; 2.36 µM with HCT-15; < 0.01 µM (active) in the assay on SR; 0.185 µM (active) in the assay with MDA-MB-231; < 0.01 µM (active) in the assay with NCI-H460; 0.0288 µM (active) with SF-539. Moreover, the figures for the GI50 in the assay on UO-31 and with DLD-1 were 1.52 µM (inactive) and 1.24 µM (inactive), respectively.
As for `CS(=O)(=O)OCCN(CCOS(C)(=O)=O)c1ccc(/C=N/c2ccc(-c3csc(COc4ccccc4)n3)cc2)cc1`, the GI50 was 12.4 µM (inactive) with MDA-MB-435; 10.2 µM (inactive) with UACC-257; 0.271 µM (active) in the assay on MOLT-4; 2.26 µM (inactive) in the assay with HCC 2998; 9.16 µM (inactive) with SNB-19; 0.853 µM (active) in the assay with CAKI-1. The GI50 in the assay with XF498 is 2.12 µM (inactive); in the assay on SK-MEL-2 it was 15.7 µM (inactive); with SF-295, 0.807 µM (active); in the assay with SK-MEL-28, 12.7 µM (inactive); with M14, 5.6 µM (inactive); with SNB-75 it was 1.9 µM (inactive). Also, the 50% growth inhibitory concentration (GI50) is 0.46 µM (active) with DMS-273; 8.51 µM in the assay on HCT-15; 0.222 µM (active) in the assay on SR; 17 µM (inactive) in the assay on MDA-MB-231; 0.0708 µM (active) in the assay with NCI-H460; 2.86 µM (inactive) in the assay with SF-539. Further, the figures for the GI50 in the assay on UO-31 and in the assay on DLD-1 were 0.65 µM (active) and 13.1 µM (inactive), respectively.
With `Cc1ccc(NC(=O)/C(CC(=O)c2c[n+]([O-])c3ccccc3[n+]2[O-])=N\NC(=O)C[n+]2ccccc2)cc1`, the GI50 with UACC-257, with MOLT-4, with HCC 2998, with SNB-19, in the assay with CAKI-1 and in the assay with XF498 was > 100 µM (inactive) each time. Further, the GI50 with SK-MEL-2, with SF-295, with SK-MEL-28, in the assay with M14, in the assay on SNB-75 and with DMS-273 was > 100 µM (inactive) throughout. In addition, the concentration for 50% growth inhibition (GI50) in the assay on HCT-15 is above 100 µM; in the assay on SR, > 100 µM (inactive); with NCI-H460, > 100 µM (inactive); in the assay on SF-539, > 100 µM (inactive); with UO-31 it was > 100 µM (inactive); with DLD-1 it was > 100 µM (inactive).
With `COC(=O)Cc1cc(=O)n2c([nH]c3ccccc32)c1C#N`, the GI50 in the assay on UACC-257, in the assay on MOLT-4, with HCC 2998, in the assay on SNB-19, in the assay with CAKI-1 and in the assay on XF498 was > 100 µM (inactive) in each case. Besides, the GI50 in the assay with SK-MEL-2 is > 100 µM (inactive); in the assay on SF-295, > 100 µM (inactive); in the assay with SK-MEL-28, > 100 µM (inactive); in the assay on M14 it was > 100 µM (inactive); in the assay on SNB-75, 0.42 µM (active); in the assay with DMS-273, > 100 µM (inactive). Further, the GI50 in the assay on HCT-15 is above 100 µM; in the assay with SR it was > 100 µM (inactive); in the assay on NCI-H460, 35.9 µM (inactive); in the assay with SF-539, > 100 µM (inactive); in the assay with UO-31 it was 61 µM (inactive); in the assay on DLD-1, 30.8 µM (inactive).

The term GI50 denotes the concentration giving 50% growth inhibition.
